Data: patent US12637469B2, “1H-pyrazole derivative and application thereof as dual target inhibitor of Syk and VEGFR2” (Ocumension Therapeutics (Suzhou) Co., Ltd., priority 2020, dated 2026)

How the values were obtained:
Experiment in all cases: Eurofins KinaseProfiler off-target kinase inhibition
Assay type in all cases: biochemical
EGFR(h) = target: T1, EGFR(h) (Homo sapiens, UniProt P00533)
T1 construct: purchased Eurofins (KinaseProfiler platform)
Description: (§1) In order to investigate the specificity of the inhibition of the target by the compound, in this study, the activity and selectivity of test compound 1 on the off-target kinases in related pathways were tested on the Eurofins kinaseProfiler™ platform, and compound screening and analysis were conducted using IC50 value as the indicator.
(§2) Compound 1 was detected for each selected kinase using the standard Eurofins Kinase Profiler™ protocol, which followed the relevant standard operating procedures. The IC50 values of the inhibitory activity of the test compound 1 on 67 kinases including Abl(h), B-Raf(h), BTK(h) and JAK(h) were analyzed.

IKKα(h) = target: T2, IKKα(h) (Homo sapiens, UniProt O15111)
T2 construct: purchased Eurofins (KinaseProfiler platform)
Description: as §1, §2

CDK4/cyclinD3(h) = target: T3, CDK4/cyclinD3(h) (Homo sapiens, UniProt P11802)
T3 construct: purchased Eurofins (KinaseProfiler platform)
Description: as §1, §2

MEK1(h) = target: T4, MEK1(h) (Homo sapiens, UniProt Q02750)
T4 construct: purchased Eurofins (KinaseProfiler service)
Description: as §1, §2

B-Raf(h) = target: T5, B-Raf(h) (Homo sapiens, UniProt P15056)
T5 construct: purchased Eurofins (KinaseProfiler platform)
Description: as §1, §2

Tie2(h) = target: T6, Tie2(h) (Homo sapiens, UniProt Q02763)
T6 construct: purchased Eurofins (KinaseProfiler platform)
Description: as §1, §2

PKA(h) = target: T7, PKA(h) (Homo sapiens, UniProt P17612)
T7 construct: purchased Eurofins (KinaseProfiler service)
Description: as §1, §2

JNK3(h) = target: T8, JNK3(h) (Homo sapiens, UniProt P53779)
T8 construct: purchased Eurofins (KinaseProfiler service)
Description: as §1, §2

mTOR/FKBP12(h) = target: T9, mTOR/FKBP12(h) (Homo sapiens, UniProt P42345)
T9 construct: purchased Eurofins (KinaseProfiler service)
Description: as §1, §2

JAK1(h) = target: T10, JAK1(h) (Homo sapiens, UniProt P23458)
T10 construct: purchased Eurofins (KinaseProfiler service)
Description: as §1, §2

ROCK-II(h) = target: T11, ROCK-II(h) (Homo sapiens, UniProt O75116)
T11 construct: purchased Eurofins (KinaseProfiler platform)
Description: as §1, §2

TrkA(h) = target: T12, TrkA(h) (Homo sapiens, UniProt P04629)
T12 construct: purchased Eurofins (KinaseProfiler platform)
Description: as §1, §2

BTK(h) = target: T13, BTK(h) (Homo sapiens, UniProt Q06187)
T13 construct: purchased Eurofins (KinaseProfiler platform)
Description: as §1, §2

FGFR3(h) = target: T14, FGFR3(h) (Homo sapiens, UniProt P22607)
T14 construct: purchased Eurofins (KinaseProfiler platform)
Description: as §1, §2

FGFR2(h) = target: T15, FGFR2(h) (Homo sapiens, UniProt P21802)
T15 construct: purchased Eurofins (KinaseProfiler service)
Description: as §1, §2

MKK4(m) = target: T16, MKK4(m) (Mus musculus, UniProt P47809)
T16 construct: purchased Eurofins (KinaseProfiler service)
Description: as §1, §2

MEK2(h) = target: T17, MEK2(h) (Homo sapiens, UniProt P36507)
T17 construct: purchased Eurofins (KinaseProfiler service)
Description: as §1, §2

FGFR1(h) = target: T18, FGFR1(h) (Homo sapiens, UniProt P11362)
T18 construct: purchased Eurofins (KinaseProfiler platform)
Description: as §1, §2

JAK2(h) = target: T19, JAK2(h) (Homo sapiens, UniProt O60674)
T19 construct: purchased Eurofins (KinaseProfiler service)
Description: as §1, §2

ErbB2(h) = target: T20, ErbB2(h) (Homo sapiens, UniProt P04626)
T20 construct: purchased Eurofins (KinaseProfiler platform)
Description: as §1, §2

FAK(h) = target: T21, FAK(h) (Homo sapiens, UniProt Q05397)
T21 construct: purchased Eurofins (KinaseProfiler service)
Description: as §1, §2

IKKβ(h) = target: T22, IKKβ(h) (Homo sapiens, UniProt O14920)
T22 construct: purchased Eurofins (KinaseProfiler platform)
Description: as §1, §2

PKBα(h) = target: T23, PKBα(h) (Homo sapiens, UniProt P31749)
T23 construct: purchased Eurofins (KinaseProfiler platform)
Description: as §1, §2

SAPK4(h) = target: T24, SAPK4(h) (Homo sapiens, UniProt O15264)
T24 construct: purchased Eurofins (KinaseProfiler platform)
Description: as §1, §2

mTOR(h) = target: T25, mTOR(h) (Homo sapiens, UniProt P42345)
T25 construct: purchased Eurofins (KinaseProfiler service)
Description: as §1, §2

MAPK1(h) = target: T26, MAPK1(h) (Homo sapiens, UniProt P27361)
T26 construct: purchased Eurofins (KinaseProfiler service)
Description: as §1, §2

Src(T341M)(h) = target: T27, Src(T341M)(h) (Homo sapiens, UniProt P12931, T341M)
T27 construct: purchased Eurofins (KinaseProfiler platform)
Description: as §1, §2

Flt3(h) = target: T28, Flt3(h) (Homo sapiens, UniProt P36888)
T28 construct: purchased Eurofins (KinaseProfiler platform)
Description: as §1, §2

Fyn(h) = target: T29, Fyn(h) (Homo sapiens, UniProt P06241)
T29 construct: purchased Eurofins (KinaseProfiler platform)
Description: as §1, §2

MKK6(h) = target: T30, MKK6(h) (Homo sapiens, UniProt P52564)
T30 construct: purchased Eurofins (KinaseProfiler service)
Description: as §1, §2

MAPKAP-K2(h) = target: T31, MAPKAP-K2(h) (Homo sapiens, UniProt P49137)
T31 construct: purchased Eurofins (KinaseProfiler service)
Description: as §1, §2

BRK(h) = target: T32, BRK(h) (Homo sapiens, UniProt Q13882)
T32 construct: purchased Eurofins (KinaseProfiler platform)
Description: as §1, §2

MSK1(h) = target: T33, MSK1(h) (Homo sapiens, UniProt O75582)
T33 construct: purchased Eurofins (KinaseProfiler service)
Description: as §1, §2

Flt1(h) = target: T34, Flt1(h) (Homo sapiens, UniProt P17948)
T34 construct: purchased Eurofins (KinaseProfiler platform)
Description: as §1, §2

JNK1α1(h) = target: T35, JNK1α1(h) (Homo sapiens, UniProt P45983)
T35 construct: purchased Eurofins (KinaseProfiler service)
Description: as §1, §2

Itk(h) = target: T36, Itk(h) (Homo sapiens, UniProt Q08881)
T36 construct: purchased Eurofins (KinaseProfiler service)
Description: as §1, §2

Aurora-B(h) = target: T37, Aurora-B(h) (Homo sapiens, UniProt Q96GD4)
T37 construct: purchased Eurofins (KinaseProfiler platform)
Description: as §1, §2

ACTR2(h) = target: T38, ACTR2(h) (Homo sapiens, UniProt P27037)
T38 construct: purchased Eurofins (KinaseProfiler platform)
Description: as §1, §2

Txk(h) = target: T39, Txk(h) (Homo sapiens, UniProt P42681)
T39 construct: purchased Eurofins (KinaseProfiler platform)
Description: as §1, §2

T37 sequence (Q96GD4 whole entry): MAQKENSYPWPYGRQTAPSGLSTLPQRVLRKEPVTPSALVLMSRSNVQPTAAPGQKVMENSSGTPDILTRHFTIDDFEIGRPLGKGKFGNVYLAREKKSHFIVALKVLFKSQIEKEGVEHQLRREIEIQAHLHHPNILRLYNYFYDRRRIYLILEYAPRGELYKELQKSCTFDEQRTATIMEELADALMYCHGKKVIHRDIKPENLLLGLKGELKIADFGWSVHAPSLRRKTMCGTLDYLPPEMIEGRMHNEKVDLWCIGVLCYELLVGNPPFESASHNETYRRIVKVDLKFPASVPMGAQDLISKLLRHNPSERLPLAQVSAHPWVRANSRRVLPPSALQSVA
T24 sequence (O15264 whole entry): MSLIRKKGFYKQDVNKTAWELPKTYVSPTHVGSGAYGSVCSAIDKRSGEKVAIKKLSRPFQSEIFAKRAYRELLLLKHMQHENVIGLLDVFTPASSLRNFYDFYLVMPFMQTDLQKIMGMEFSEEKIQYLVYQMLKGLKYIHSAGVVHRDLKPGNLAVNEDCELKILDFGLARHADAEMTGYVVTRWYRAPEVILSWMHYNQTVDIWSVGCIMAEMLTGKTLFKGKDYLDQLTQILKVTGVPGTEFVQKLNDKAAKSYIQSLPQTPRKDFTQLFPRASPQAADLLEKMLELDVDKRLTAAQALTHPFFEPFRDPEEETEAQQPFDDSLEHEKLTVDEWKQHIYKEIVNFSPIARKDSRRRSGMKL
T36 sequence (Q08881 whole entry): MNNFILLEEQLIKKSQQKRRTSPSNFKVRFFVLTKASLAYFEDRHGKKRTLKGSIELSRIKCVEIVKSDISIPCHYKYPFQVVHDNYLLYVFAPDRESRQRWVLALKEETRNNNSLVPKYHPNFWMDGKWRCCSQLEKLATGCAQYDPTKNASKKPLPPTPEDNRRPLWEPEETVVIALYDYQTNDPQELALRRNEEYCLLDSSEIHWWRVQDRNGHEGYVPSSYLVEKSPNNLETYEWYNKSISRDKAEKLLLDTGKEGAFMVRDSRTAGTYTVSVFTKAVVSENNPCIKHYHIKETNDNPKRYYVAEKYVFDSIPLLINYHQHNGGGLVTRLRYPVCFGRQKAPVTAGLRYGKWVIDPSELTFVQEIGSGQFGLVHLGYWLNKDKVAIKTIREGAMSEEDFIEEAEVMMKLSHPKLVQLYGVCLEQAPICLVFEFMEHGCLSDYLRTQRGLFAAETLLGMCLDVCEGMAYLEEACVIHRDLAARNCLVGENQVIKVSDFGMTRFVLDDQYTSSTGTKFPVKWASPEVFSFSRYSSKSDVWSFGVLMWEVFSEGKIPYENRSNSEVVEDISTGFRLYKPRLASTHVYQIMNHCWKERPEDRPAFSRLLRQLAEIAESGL
T30 sequence (P52564 whole entry): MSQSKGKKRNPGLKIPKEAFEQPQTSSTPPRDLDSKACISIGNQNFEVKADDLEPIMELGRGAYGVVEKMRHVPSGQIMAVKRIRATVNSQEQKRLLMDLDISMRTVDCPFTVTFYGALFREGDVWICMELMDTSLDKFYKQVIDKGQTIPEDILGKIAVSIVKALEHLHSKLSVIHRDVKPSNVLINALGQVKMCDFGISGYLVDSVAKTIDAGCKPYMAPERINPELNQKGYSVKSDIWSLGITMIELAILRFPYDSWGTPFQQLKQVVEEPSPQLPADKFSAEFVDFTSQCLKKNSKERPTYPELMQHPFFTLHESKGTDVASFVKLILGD
T4 sequence (Q02750 whole entry): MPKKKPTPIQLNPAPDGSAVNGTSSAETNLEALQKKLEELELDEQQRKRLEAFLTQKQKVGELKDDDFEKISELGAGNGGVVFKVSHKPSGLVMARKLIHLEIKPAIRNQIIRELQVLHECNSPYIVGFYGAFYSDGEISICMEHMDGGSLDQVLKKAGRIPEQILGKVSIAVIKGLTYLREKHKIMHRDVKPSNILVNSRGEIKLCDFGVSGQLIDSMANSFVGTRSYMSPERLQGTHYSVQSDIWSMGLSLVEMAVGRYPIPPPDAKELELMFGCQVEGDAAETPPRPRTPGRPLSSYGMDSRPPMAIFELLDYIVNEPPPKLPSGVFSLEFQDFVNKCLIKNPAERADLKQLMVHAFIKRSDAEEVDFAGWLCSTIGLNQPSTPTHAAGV
T11 sequence (O75116 whole entry): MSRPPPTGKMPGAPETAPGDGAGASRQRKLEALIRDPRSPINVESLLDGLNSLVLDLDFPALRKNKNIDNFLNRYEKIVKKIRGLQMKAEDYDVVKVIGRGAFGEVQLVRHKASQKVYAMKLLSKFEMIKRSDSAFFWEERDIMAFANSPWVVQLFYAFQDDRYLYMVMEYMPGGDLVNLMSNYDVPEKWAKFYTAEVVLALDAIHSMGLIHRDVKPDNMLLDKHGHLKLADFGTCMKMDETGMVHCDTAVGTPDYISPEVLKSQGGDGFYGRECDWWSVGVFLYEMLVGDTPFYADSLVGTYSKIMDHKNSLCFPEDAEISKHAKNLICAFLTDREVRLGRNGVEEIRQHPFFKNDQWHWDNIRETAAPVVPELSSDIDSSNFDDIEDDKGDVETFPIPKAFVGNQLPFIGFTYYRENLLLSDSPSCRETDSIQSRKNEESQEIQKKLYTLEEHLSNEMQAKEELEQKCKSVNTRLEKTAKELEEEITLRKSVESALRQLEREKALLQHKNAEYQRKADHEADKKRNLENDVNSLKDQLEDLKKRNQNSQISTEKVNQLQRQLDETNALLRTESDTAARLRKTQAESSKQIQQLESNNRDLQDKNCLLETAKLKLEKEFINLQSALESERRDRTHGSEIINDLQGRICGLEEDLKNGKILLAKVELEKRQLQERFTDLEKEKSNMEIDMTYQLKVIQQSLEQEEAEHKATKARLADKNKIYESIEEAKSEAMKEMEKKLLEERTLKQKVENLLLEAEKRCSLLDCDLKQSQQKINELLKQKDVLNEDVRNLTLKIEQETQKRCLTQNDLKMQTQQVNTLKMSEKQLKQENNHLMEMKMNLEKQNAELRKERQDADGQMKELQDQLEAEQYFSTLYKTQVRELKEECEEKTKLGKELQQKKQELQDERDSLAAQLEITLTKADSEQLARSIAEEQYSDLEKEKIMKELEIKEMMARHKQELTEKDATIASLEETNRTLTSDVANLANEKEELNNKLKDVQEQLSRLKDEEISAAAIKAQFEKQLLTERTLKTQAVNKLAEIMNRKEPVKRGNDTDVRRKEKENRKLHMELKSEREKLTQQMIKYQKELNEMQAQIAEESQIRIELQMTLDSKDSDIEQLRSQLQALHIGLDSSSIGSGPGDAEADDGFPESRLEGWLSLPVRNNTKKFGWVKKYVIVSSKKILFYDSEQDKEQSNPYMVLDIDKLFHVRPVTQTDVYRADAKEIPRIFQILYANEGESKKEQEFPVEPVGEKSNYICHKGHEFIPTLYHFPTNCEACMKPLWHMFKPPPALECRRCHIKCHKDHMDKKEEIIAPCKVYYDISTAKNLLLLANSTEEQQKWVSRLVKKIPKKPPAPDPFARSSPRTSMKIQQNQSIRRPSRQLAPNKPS
T23 sequence (P31749 whole entry): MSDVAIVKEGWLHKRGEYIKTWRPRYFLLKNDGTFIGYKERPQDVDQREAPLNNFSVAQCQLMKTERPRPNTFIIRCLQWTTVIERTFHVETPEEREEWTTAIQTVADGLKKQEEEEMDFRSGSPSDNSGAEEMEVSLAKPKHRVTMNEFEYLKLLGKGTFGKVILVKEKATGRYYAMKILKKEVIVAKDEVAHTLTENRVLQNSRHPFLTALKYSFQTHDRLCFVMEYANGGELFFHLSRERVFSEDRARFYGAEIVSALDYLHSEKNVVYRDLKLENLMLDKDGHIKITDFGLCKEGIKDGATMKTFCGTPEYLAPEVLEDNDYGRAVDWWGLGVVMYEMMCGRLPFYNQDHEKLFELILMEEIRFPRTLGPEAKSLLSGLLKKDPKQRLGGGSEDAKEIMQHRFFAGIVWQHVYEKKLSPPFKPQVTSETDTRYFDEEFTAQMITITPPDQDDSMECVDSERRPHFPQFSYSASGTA
T29 sequence (P06241 whole entry): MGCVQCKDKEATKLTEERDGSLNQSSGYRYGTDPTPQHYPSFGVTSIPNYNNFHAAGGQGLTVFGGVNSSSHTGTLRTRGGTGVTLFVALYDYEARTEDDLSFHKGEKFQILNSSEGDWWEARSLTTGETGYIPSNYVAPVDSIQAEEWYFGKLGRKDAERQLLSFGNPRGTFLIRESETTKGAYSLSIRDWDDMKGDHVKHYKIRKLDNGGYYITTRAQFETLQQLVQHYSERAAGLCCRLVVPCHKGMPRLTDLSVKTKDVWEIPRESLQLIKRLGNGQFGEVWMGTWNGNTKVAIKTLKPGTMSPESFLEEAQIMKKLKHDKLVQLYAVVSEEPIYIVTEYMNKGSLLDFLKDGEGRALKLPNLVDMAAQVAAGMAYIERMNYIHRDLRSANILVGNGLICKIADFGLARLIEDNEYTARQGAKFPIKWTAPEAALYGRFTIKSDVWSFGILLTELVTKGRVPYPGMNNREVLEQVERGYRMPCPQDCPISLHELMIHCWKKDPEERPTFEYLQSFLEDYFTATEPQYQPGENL
T8 sequence (P53779 whole entry): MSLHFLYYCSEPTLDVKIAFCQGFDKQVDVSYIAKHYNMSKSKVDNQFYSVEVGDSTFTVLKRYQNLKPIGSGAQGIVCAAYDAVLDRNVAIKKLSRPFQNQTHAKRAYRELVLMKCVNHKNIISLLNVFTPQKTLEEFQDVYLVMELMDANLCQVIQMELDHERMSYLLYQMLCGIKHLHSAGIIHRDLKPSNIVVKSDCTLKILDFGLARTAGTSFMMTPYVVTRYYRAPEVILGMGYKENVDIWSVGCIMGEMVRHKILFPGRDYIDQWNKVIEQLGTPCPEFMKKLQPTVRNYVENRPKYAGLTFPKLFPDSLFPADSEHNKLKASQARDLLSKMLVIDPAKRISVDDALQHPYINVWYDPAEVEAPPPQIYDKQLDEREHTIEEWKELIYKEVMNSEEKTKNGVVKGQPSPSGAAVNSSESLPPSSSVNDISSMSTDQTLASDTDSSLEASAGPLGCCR

`c1cn2c(n1)c(Nc1ccc(N3CCOCC3)cc1)nc1ccc(-c3cn[nH]c3)cc12` [Compound 1] was tested, and the IC50 (EGFR(h)) was greater than 10000 nM, the IC50 (IKKα(h)) was 946 nM and the IC50 (CDK4/cyclinD3(h)) was greater than 10000 nM. It also gave an IC50 (MEK1(h)) greater than 10000 nM, an IC50 (B-Raf(h)) of 91 nM and an IC50 (Tie2(h)) of 2060 nM. For the same molecule, the IC50 (PKA(h)) was greater than 10000 nM, the IC50 (JNK3(h)) was 279 nM and the IC50 (mTOR/FKBP12(h)) was greater than 10000 nM. For the same molecule, the IC50 (JAK1(h)) was 663 nM, the IC50 (ROCK-II(h)) was 499 nM and the IC50 (TrkA(h)) was 112 nM. It also gave an IC50 (BTK(h)) of 1040 nM, an IC50 (FGFR3(h)) greater than 10000 nM and an IC50 (FGFR2(h)) greater than 10000 nM. For the same molecule, the IC50 (MKK4(m)) was greater than 10000 nM, the IC50 (MEK2(h)) was greater than 10000 nM and the IC50 (FGFR1(h)) was 847 nM. For the same molecule, the IC50 (JAK2(h)) was 141 nM, the IC50 (ErbB2(h)) was greater than 10000 nM and the IC50 (FAK(h)) was 469 nM. It also gave an IC50 (IKKβ(h)) greater than 10000 nM, an IC50 (PKBα(h)) greater than 10000 nM and an IC50 (SAPK4(h)) greater than 10000 nM. For the same molecule, the IC50 (mTOR(h)) was greater than 10000 nM, the IC50 (MAPK1(h)) was greater than 10000 nM and the IC50 (Src(T341M)(h)) was 1010 nM. The IC50 (Flt3(h)) was 12 nM, the IC50 (Fyn(h)) was 373 nM and the IC50 (MKK6(h)) was greater than 10000 nM. The IC50 (MAPKAP-K2(h)) was greater than 10000 nM, the IC50 (BRK(h)) was 775 nM and the IC50 (MSK1(h)) was greater than 10000 nM. For the same molecule, the IC50 (Flt1(h)) was 104 nM, the IC50 (JNK1α1(h)) was 1170 nM and the IC50 (Itk(h)) was 1850 nM. It also gave an IC50 (Aurora-B(h)) of 232 nM, an IC50 (ACTR2(h)) greater than 10000 nM and an IC50 (Txk(h)) of 227 nM.
